We go through eight molecules from US20200237786A1, “DIAGNOSIS AND TREATMENT OF ENDOMETRIOSIS BY SCREENING FOR L-FORM BACTERIA” (Soft Cell Biological Research, LLC, priority 2017, published 2020).

Experiment [1] has as its system Bacterial strains identified in Example 5. Briefly: Antibiotic sensitivity by diffusion disk test of strains cultured from each subject. The class given is cell-based. The method, then:
(§1) The disclosure is based, in part, on the recognition that certain L-form bacteria are sensitive to (e.g., not resistant to treatment with) specific antibiotic agents. In some embodiments, resistance to antibiotic agents is tested by a diffusion tab (diffusion disk) test, for example as described in Reller et al. (2009) Clinical Infectious Diseases, 49(11): 1749-1755. However, the skilled artisan recognizes that additional methods of antibiotic sensitivity testing may also be used.
(§2) Bacterial strains identified in Example 5 were tested for antibiotic sensitivity by a diffusion disk test. […] Resistance to Oxacillin was also observed in the M. maritypicum samples.

In experiment [2] the test system is M. maritypicum. Briefly: Antibiotic sensitivity by diffusion disk test, M. maritypicum. The class given is cell-based, Microbacterium maritypicum. On the procedure:
as §1, §2

[3] abbreviates: strains cultured from subject 1609.
[4] abbreviates: strains cultured from subject 1642.
Where [5] appears, read: strains cultured from subject 1644.
Where [6] appears, read: strains cultured from subject 3016.
Where [7] appears, read: strains cultured from subject 1538.
The mark [8] stands for this setting: strains cultured from subject 1619.
Where [9] appears, read: strains cultured from subject 1636.
Where [10] appears, read: strains cultured from subject 1842.
Where [11] appears, read: strains cultured from subject 3025.
[12] abbreviates: strains cultured from subject 3164.
Setting [13] is: strains cultured from subject 1545.
The mark [14] stands for this setting: strains cultured from subject 1985.
Setting [15] is: strains cultured from subject 1905.

Consider `CO/N=C(\C(=O)N[C@@H]1C(=O)N2C(C(=O)O)=C(COC(N)=O)CS[C@H]12)c1ccco1` [Cefuroxime], for which the “Resistance?” value in experiment [1] (setting [3]), in experiment [1] (setting [4]) and in experiment [1] (setting [6]) was “Cefuroxime” each time. Further, in experiment [1] (setting [5]), the “Most Effective Oral Antibiotic” value is given as “Cefuroxime”.
Regarding `C[C@@H](O)[C@H]1C(=O)N2C(C(=O)O)=C(S[C@@H]3CN[C@H](C(=O)N(C)C)C3)[C@H](C)[C@H]12` [Meropenem], the “Most Effective IV Antibiotic” value in experiment [1] (setting [7]), in experiment [1] (setting [3]), in experiment [1] (setting [8]), in experiment [1] (setting [9]), in experiment [1] (setting [10]) and in experiment [1] (setting [11]) was “Meropenem” each time. The “Most Effective IV Antibiotic” value in experiment [1] (strains cultured from subject 3104) and in experiment [1] (setting [12]) was “Meropenem” throughout.
Turning to `Cc1ncc([N+](=O)[O-])n1CCO` [Metronidazole], the “Resistance?” value in experiment [1] (setting [7]) is “Metronidazole”; in experiment [1] (setting [13]) it was “Metronidazile,”; in experiment [1] (setting [3]) it was “Metronidazole,”; in experiment [1] (setting [8]), “Metronidazole,”; in experiment [1] (setting [9]) it was “Metronidazole,”; in experiment [1] (setting [4]) it was “Metronidazole,”. In addition, the “Resistance?” value in experiment [1] (setting [5]) is on record as “Metronidazole,”; in experiment [1] (strains cultured from subject 1661) it was “Metronidazole,”; in experiment [1] (setting [10]) it was “Metronidazole,”; in experiment [1] (setting [14]) it was “Metronidazole”; in experiment [1] (setting [6]) it was “Metronidazole,”; in experiment [1] (setting [12]) it was “Metronidazole”. Also, the “resistance observed for M. maritypicum” value in experiment [2] (in the majority of samples) is reported as “resistance”.
`Cc1onc(-c2ccccc2)c1C(=O)N[C@@H]1C(=O)N2[C@@H]1SC(C)(C)[C@@H]2C(=O)O` [Oxacillin]: the “Resistance?” value in experiment [1] (setting [13]) is given as “Oxacillin”; in experiment [1] (setting [3]) it was “Oxaillin”; in experiment [1] (setting [8]), “Oxacillin”; in experiment [1] (setting [9]) it was “Oxacillin”; in experiment [1] (setting [4]), “Oxacillin”; in experiment [1] (setting [5]), “Oxacillin”. For the same molecule, the “Resistance?” value is given as “Oxacillin” in experiment [1] (setting [10]), “Oxacilin” in experiment [1] (setting [6]) and “Oxacillin” in experiment [1] (setting [11]). Further, in experiment [2] (M. maritypicum samples), the “resistance observed in the M. maritypicum samples” value is “Resistance”.
Amoxiclav: the “Most Effective Oral Antibiotic” value is on record as “Amoxiclav” in experiment [1] (setting [7]); “Amoxiclav” in experiment [1] (strains cultured from subject 1888); “Amoxiclav,” in experiment [1] (setting [15]); “Amoxiclav” in experiment [1] (setting [6]); “Amoxiclav” in experiment [1] (setting [11]). For the same molecule, the “Resistance?” value in experiment [1] (setting [4]) is reported as “Amoxiclav”.
As to Penicillin, the “Most Effective Oral Antibiotic” value in experiment [1] (setting [15]) is given as “Penicillin”. Further, the “Resistance?” value in experiment [1] (setting [6]) is on record as “Penicillin”.
Rifapin: the “Most Effective Oral Antibiotic” value in experiment [1] (setting [14]) is “Rifapin”.
On to Sulfa-Trimeth, for which the “Resistance?” value is given as “Sulfa-” in experiment [1] (setting [13]), “Sulfa-Trimeth,” in experiment [1] (setting [4]) and “Sulfa-Trimeth,” in experiment [1] (setting [6]).
